The numbers were not newly measured in the CATMoS acute toxicity set (Mansouri et al. 2021), which cites them from elsewhere.

Structures are written as SMILES. “And” between values parts separate entries of the source, which are not always exact repeats. Identical values can stand only once.

The series is described as follows: rat acute oral toxicity. To be noted: in vivo.
For `CCCCCCCC[N+](C)(CCCCCCCC)CCCCCCCC`, the LD50 (commonly the dose at which mortality reaches 50%) was 223 mg/kg.
As to `CC(C)(C)c1cc(C=C(C#N)C#N)cc(C(C)(C)C)c1O`, the LD50 was 87 mg/kg.
For `CC(C)N=C1SC(=NOC(=O)N(C)SN(C)C(=O)ON=C2SC(=NC(C)C)SC2(C)C)C(C)(C)S1`, the LD50 was 113 mg/kg.
Consider `C=Cc1ccccn1`, for which the LD50 was 100 mg/kg.
Take `CC[N+](CC)(CCNC(=O)C(=O)NCC[N+](CC)(CC)Cc1ccccc1Cl)Cc1ccccc1Cl`: the LD50 is 18.5 mg/kg.
Regarding `C=CCC(CCN(CC)CC)(C(=O)OCC)c1ccccc1` (stereo not given), the LD50 is 200 mg/kg.
Take `CCOP(=O)(OCC)Oc1nc(Cl)c(Cl)cc1Cl`: the LD50 was 135 mg/kg.
In the case of `O=C(CN1CCCCC1)N1CCOc2ccccc21`, the LD50 was 200 mg/kg.
Consider `COc1ccc2c3c1O[C@H]1[C@H](N=[N+]=[N-])CC[C@H]4[C@@H](C2)N(C)CC[C@@]341`, for which the LD50 was 120 mg/kg.
Take `CCC(CC)c1cccc(OC(=O)NC)c1`: the LD50 was 87 mg/kg.
As to `N#CC(Cl)CS(=O)(=O)c1ccccc1` (stereo not given), the LD50 is 540 mg/kg.
With `CN(C)CN(C)C`, the LD50 was 1770 mg/kg.
As for `CC[C@]1(CO)CCCN2CCc3c([nH]c4ccccc34)[C@@H]21`, the LD50 was 1200 mg/kg.
Regarding `CN(c1nc2ccccc2s1)C1CCN(CCCCOc2ccc(F)cc2)CC1`, the LD50 is 154 mg/kg.
As to `CCOC(C1=NCC(C)(C)CN1)c1cccc(Cl)c1` (stereo not given), the LD50 was 95 mg/kg.
For `CP(C)(=O)CN1C(=O)CN=C(c2ccccc2)c2cc(Cl)ccc21`, the LD50 was 3110 mg/kg.
Take `O=C1CCc2cc(C(=O)CCCN3CC=C(c4ccc(Cl)cc4)CC3)ccc2N1`: the LD50 is 500 mg/kg.
In the case of `Cc1ccc(=O)n(CSP(=S)(OC(C)C)OC(C)C)n1`, the LD50 is 155 mg/kg.
For `CC(C)NCC1CCc2cc(CO)c([N+](=O)[O-])cc2N1` (stereo not given), the LD50 was 30 mg/kg.
As to `CN1CN(CCO)CSC1=S`, the LD50 is 1000 mg/kg.
As for `CSC(C)(C)C=NO`, the median lethal dose (LD50) is 742 mg/kg.
As for `O=C(OC1CCCCC1)C(Oc1ccc(Cl)cc1)Oc1ccc(Cl)cc1`, the LD50 is 900 mg/kg.
Turning to `CCCCN(CC)c1c([N+](=O)[O-])cc(C(F)(F)F)cc1[N+](=O)[O-]`, the LD50 is 10000 mg/kg.
On to `O=[N+]([O-])c1cc[n+]([O-])cc1`, for which the LD50 is 107 mg/kg.
Take `SCCc1cnccn1`: the LD50 was 158 mg/kg.
Turning to `CN[C@@H]1[C@H](O[C@H]2[C@H](O[C@H]3[C@H](O)[C@@H](O)[C@H](NC(=N)N)[C@@H](O)[C@@H]3NC(=N)N)O[C@@H](C)[C@]2(O)C=O)O[C@@H](CO)[C@H](O)[C@H]1O`, the LD50 is 9000 mg/kg.
For `NC1CCC(CC2CCC(N)CC2)CC1` (stereo not given), the LD50 is 1750 mg/kg.
For the compound `CCN(CC)CCOC(=O)C1(C2CCCCC2)CCCCC1`, the LD50 was 1290 mg/kg.
Take `CCOP(=S)(OCC)SC(C#N)c1ccccc1` (stereo not given): the LD50 is 100 mg/kg.
For `COC1CCC=CO1` (stereo not given), the LD50 is 1410 mg/kg.
As for `O=C(Nc1nc2ccc([N+](=O)[O-])cc2s1)c1ccc([N+](=O)[O-])cc1`, the LD50 is 1500 mg/kg.
On to `CSCCC(OC(C)=O)C(=O)O` (stereo not given), for which the LD50 is 2340 mg/kg.
With `O=S1(=O)CS(=O)(=O)OCO1`, the LD50 was 300 mg/kg.
On to `CCN(CC)CCN(CCN(CC)CC)n1cc(-c2ccccc2)c2ccccc21`, for which the 50% lethal dose (LD50) was 800 mg/kg.
`Cc1cc(=NC(=O)c2ccccc2O)n(-c2ccccc2)n1C`: the LD50 is 1270 mg/kg.
For the compound `CCCCC(CC)COCCC#N` (stereo not given), the LD50 was 4920 mg/kg.
As for `CCN(CC)CCNc1c2ccccc2nc2cccc([N+](=O)[O-])c12`, the LD50 is 42.2 mg/kg.
For the compound `CC(=NOC(=O)N(C)SSN(C)C(=O)ON=C(C)SCCC#N)SCCC#N`, the LD50 is 80 mg/kg.
Turning to `C#CCCl`, the LD50 is 165 mg/kg.
As for `BrC/C=C/CBr`, the LD50 was 62 mg/kg.
For `C=CC(COC)c1ccccc1OC(=O)NC` (stereo not given), the LD50 is 100 mg/kg.
On to `S=c1[nH]c2ccc(Cl)cc2[nH]1`, for which the LD50 is 150 mg/kg.
As for `Brc1ccc2[nH]cc(CC3CCNCC3)c2c1`, the LD50 was 25 mg/kg.
Consider `C=Cc1ccc(OCC2CO2)cc1` (stereo not given), for which the LD50 is 1000 mg/kg.
Consider `CCOCCOCC(C)O` (stereo not given), for which the LD50 was 9330 mg/kg.
For `Cc1ccc2c(c1)CC(=O)c1cc(C(C)C(=O)O)ccc1S2` (stereo not given), the 50% lethal dose (LD50) was 100 mg/kg.
With `CC1(C)COC(c2ccccc2)CN1` (stereo not given), the LD50 was 450 mg/kg and 480 mg/kg.
Take `Nc1ccc(S(=O)(=O)O)c(N)c1`: the LD50 is 3480 mg/kg.
Regarding `CNC(=O)OCc1cccc(COC(=O)NC)n1`, the LD50 is 1230 mg/kg.
As to `CCOP(=O)(O)Sc1ccc(C)cc1`, the LD50 was 50 mg/kg.
As for `CCOc1ccc(C(CN(C)C)C(C)CC)cc1Cl` (stereo not given), the LD50 is 451 mg/kg.
As to `ClCCOCCC(OCCCl)OCCCl`, the LD50 is 710 mg/kg.
Consider `C=CC(=O)OCCC#N`, for which the LD50 is 180 mg/kg.
For the compound `c1ccc2[nH]c(-c3cscn3)nc2c1`, the LD50 was 3600 mg/kg and 3100 mg/kg.
`FC(F)=C(F)c1ccccc1`: the LD50 was 2500 mg/kg.
As to `COc1cc(C=CC(=O)N2CCN(CC(=O)N3CCCC3)CC2)cc(OC)c1OC`, the LD50 was 1310 mg/kg.
With `Fc1ccc(SCc2ccc(Cl)cc2)cc1`, the LD50 was 3000 mg/kg.
`CCC=C(C)C=O`: the LD50 was 4290 mg/kg.
On to `CCOC(=O)C=Cc1ccccc1`, for which the LD50 is 4000 mg/kg.
In the case of `CSCc1cnc(C)c(O)c1CO`, the LD50 is 4300 mg/kg.
`Cc1ccc2ccccc2c1N`: the LD50 is 620 mg/kg.
Consider `CC1(C)S[C@@H]2[C@H](NC(=O)Cc3ccccc3)C(=O)N2[C@H]1C(=O)O`, for which the LD50 is 8900 mg/kg and 8000 mg/kg and 6920 mg/kg.
For the compound `CC(=O)OCC1=CC[C@@H]2C[C@H]1C2(C)C`, the LD50 was 2600 mg/kg.
Consider `COC(C)=NC#N`, for which the LD50 is 432 mg/kg.
Consider `O=c1[nH]c2ccccc2o1`, for which the LD50 is 700 mg/kg.
Take `CCN1CN(CO)C(=O)N(CO)C1`: the median lethal dose (LD50) is 8220 mg/kg.
In the case of `O=NN(CCCC(F)(F)F)CCCC(F)(F)F`, the LD50 is 750 mg/kg.
With `CC(C)CCCCCCCCCCO`, the LD50 is 17000 mg/kg.
Turning to `COC12C(COC(N)=O)C3=C(C(=O)C(C)=C(N)C3=O)N1CC1C2N1C` (stereo not given), the LD50 is 68 mg/kg.
Turning to `CCCCCCCCOC(=O)CC(C(=O)OCCCCCCCC)S(=O)(=O)O` (stereo not given), the LD50 is 1900 mg/kg.
Regarding `CC(Oc1ccc2ccccc2c1)C(O)=Nc1ccccc1` (stereo not given), the LD50 is 15000 mg/kg.
In the case of `CCNC(=O)/C=C/c1cccc(Br)c1`, the LD50 was 4440 mg/kg.
As for `NS(=O)(=O)CCl`, the LD50 was 6050 mg/kg.
Regarding `c1ccc(NC[Si]23OCCN(CCO2)CCO3)cc1`, the LD50 is 0.328 mg/kg.
On to `O=C1CCCC1`, for which the LD50 is 2690 mg/kg.
Consider `Cn1c(=N)oc2ccc(Cl)cc21`, for which the LD50 was 1000 mg/kg.
`ClCC(Cl)(Cl)Cl`: the LD50 is 670 mg/kg.
Regarding `C=CC(N)CCC(=O)O` (stereo not given), the LD50 was 3000 mg/kg.
Turning to `C=C(C#N)OC(C)=O`, the LD50 is 100 mg/kg.
Take `O=S(=O)(O)Oc1ccc(C(c2ccc(OS(=O)(=O)O)cc2)c2ccccn2)cc1`: the LD50 is 11300 mg/kg.
As for `CCCCC(CC)CN(CCO)CC(CC)CCCC` (stereo not given), the LD50 is 4920 mg/kg.
`Nc1nc2cc(F)ccc2o1`: the LD50 is 1000 mg/kg.
Consider `Nc1cccc(C(O)CNC2CC2)c1` (stereo not given), for which the LD50 is 3250 mg/kg.
In the case of `CC=CC(=O)N(CC)c1ccccc1C`, the LD50 is 1500 mg/kg.
Turning to `CCN(N=O)C(N)=O`, the LD50 is 300 mg/kg.
Take `CC(=O)c1ccc(N)cc1`: the LD50 is 381 mg/kg.
On to `CN(C)C(=O)Oc1ccccc1C1SCCS1`, for which the LD50 is 16 mg/kg.
For the compound `C=CC1OCCO1`, the LD50 was 84.7 mg/kg.
Regarding `NCCNCc1ccccc1O`, the LD50 is 3700 mg/kg.
Turning to `COP(=O)(Oc1ccc([N+](=O)[O-])c(C)c1)SC` (stereo not given), the LD50 is 315 mg/kg.
